Assay results taken from US4225529A, “Compositions containing platinum” (Johnson, Matthey & Co., Limited, priority 1977, dated 1980).

What was measured:
S180 solid tumour = test: antitumour activity against S180 solid tumour in mice (T/C); assay type: in vivo; conditions: S180, @ 10 mg/Kg, carrier water, intraperitoneal
Procedure: (§1) Complexes according to the invention were tested for antitumour activity against L-1210 leukaemia, ADJ/PC6A tumour or S180 solid tumour in mice. In the results which follow, dosages are quoted in mg/Kg body weight and the evaluation of effectiveness (% T/C) against L1210 is calculated as the median survival time of treated mice divided by the median survival time of untreated (control) mice expressed as a percentage. Thus a % T/C of 100 indicates no activity and a % T/C of greater than or equal to 125 is considered to be indicative of significant antitumour activity.
(§2) Against a solid tumour, the % T/C is a measure of tumour regression and is the percentage of tumour weight in treated mice to that in control mice. Against ADJ/PC6A and S180, several dose levels were given and ranged from lethal to non-tumour inhibitory, allowing the calculation of LD50 and ID90 (minimum dose to cause 90% tumour inhibition) in one experiment. The ratio LD50 /ID90 is the therapeutic index and is a measure of the selectivity of the compound as an anti-tumour agent. […]

L-1210 leukaemia = test: antitumour activity against L1210 leukaemia in mice (% T/C); assay type: in vivo; conditions: intraperitoneal, median survival treated/control
Procedure: as §1, §2

ADJ/PC6A tumour = test: antitumour activity against ADJ/PC6A tumour in mice (ID90, LD50, therapeutic index); assay type: in vivo; conditions: intraperitoneal single dose in arachis oil
Procedure: Complexes according to the invention were tested for antitumour activity against L-1210 leukaemia, ADJ/PC6A tumour or S180 solid tumour in mice. […] Thus a % T/C of 100 indicates no activity and a % T/C of greater than or equal to 125 is considered to be indicative of significant antitumour activity.
Against a solid tumour, the % T/C is a measure of tumour regression and is the percentage of tumour weight in treated mice to that in control mice. Against ADJ/PC6A and S180, several dose levels were given and ranged from lethal to non-tumour inhibitory, allowing the calculation of LD50 and ID90 (minimum dose to cause 90% tumour inhibition) in one experiment. The ratio LD50 /ID90 is the therapeutic index and is a measure of the selectivity of the compound as an anti-tumour agent. All compounds were administered intraperitoneally as a single dose suspended in arachis oil.

stability in solution = assay type: physicochemical
Procedure: cis-[PtI2 (n-C4 H9 NH2)2 ] (120 g, 0.20 mol) was slurried with a warm solution of silver nitrate (66 g, 0.38 mol) in water (200 ml). The mixture was stirred for 3 hours during which time the yellow suspension turned pale grey. The mixture was then treated with charcoal, stirred and filtered through a porosity 4 sinter. The residue was washed once with 30 ml of water and the washings were combined with the filtrate (total volume 300 ml).
Cis-[PtI2 (n-C3 H7 NH2)2 ] (127 g, 0.22 mol) was slurried with a warm (50° C.) solution of silver nitrate (73 g, 0.43 mol) in 130 mls of water. The mixture was stirred for 4 hours during which time the yellow suspension turned dark grey. The mixture was then treated with charcoal, stirred and filtered through a porosity 4 sinter. The residue was triturated with water (20 mls) and the filtrates combined to give a clear orange solution (total volume 150 mls).
The crude oxalto complex was recrystallised as follows. The product was added to a stirred, vigorously boiling aqueous solution of 0.1 M potassium oxalate (800 ml). The solution was boiled for 30 minutes to effect dissolution during which time the solution darkened owing to some platinum formation. The solution was then treated with charcoal, stirred, cooled to 80° C. and filtered through a porosity 4 sinter. White crystals formed on cooling the filtrate to 25° C. and after storage for 3 days at 5° C., the product was filtered off, washed with water and air dried.
The solution was concentrated to a volume of 30-40 mls, treated with charcoal and filtered through a porosity 4 sinter. A white solid formed when the solution was cool. This was filtered off on a porosity 3 sinter. More white solid was obtained when an equal volume of water was added to the ethanolic filtrate. The purified products were combined, washed with water, ethanol and dried in vacuo.

[1] = aqueous solution, on standing (tendency to darken)

Question: For `CCN.CCN.O=C1[O][Pt][O]C1=O` [Bis-(ethylamine)oxalatoplatinum(II)], which “T/C (tumour weight in treated mice to that in control mice)” value (S180 solid tumour) is on record?
Answer: Its value is 21%.

Question: Which results are given for `CCCN.CCCN.O=C1[O][Pt][O]C1=O` [Bis-(n-propylamino)oxalatoplatinum(II), Oxalatobis(n-propylamine)platinum(II)]?
Answer: % T/C (L-1210 leukaemia; L1210, daily dose for 9 days @ 15 mg/Kg): 143%; % T/C (L-1210 leukaemia; L1210, daily dose for 9 days @ 30 mg/Kg): 143%; % T/C (L-1210 leukaemia; L1210, single dose @ 59 mg/Kg): 129%

Question: Which results are given for `CCCCN.CCCCN.O=C(CCl)[O][Pt][O]C(=O)CCl` [Cis-bis (n-butylamine) bis(chloroacetato) platinum (II)]?
Answer: % T/C (L-1210 leukaemia; L1210, daily dose for 9 days @ 32 mg/kg): 136%; % T/C (L-1210 leukaemia; L1210, single dose @ 256 mg/Kg): 107%

Question: Which “% T/C” value (L-1210 leukaemia; L1210, daily dose for 9 days @ 6 mg/Kg) does the source give for `CCCN.CCCN.O=C(CCl)[O][Pt][O]C(=O)CCl` [Cis-bis(chloroacetato) bis(n-propylamine)platinum II] here?
Answer: The value was 225%.

Question: What about the “% T/C” value (L-1210 leukaemia; L1210, single dose @ 12 mg/Kg) of the same compound?
Answer: Its value is 167%.

Question: And the “% T/C” value (L-1210 leukaemia; L1210, single dose @ 24 mg/Kg)?
Answer: Its value is 167%.

Question: For `CCCN.CCCN.[Cl][Pt][Cl]` [Cis-bis(n-propylamine)dichloroplatinum(II)], which “% T/C” value (L-1210 leukaemia; L1210, daily dose for 9 days @ 4 mg/kg) is on record?
Answer: Its value is 157%.

Question: And the “% T/C” value (L-1210 leukaemia; L1210, single dose @ 8 mg/Kg)?
Answer: Its value is 157%.

Question: With `CCCCN.CCCCN.[Cl][Pt][Cl]` [Cis-bis-(n-butylamine)dichloroplatinum(II)] as the compound, how does the “ID90 (minimum dose to cause 90% tumour inhibition)” value (ADJ/PC6A tumour) read?
Answer: Its value is under 10 mg/kg.

Question: And the LD50 (ADJ/PC6A tumour)?
Answer: The LD50 was 110 mg/kg.

Question: What about the “TI (therapeutic index, ratio LD50/ID90)” value (ADJ/PC6A tumour) of the same compound?
Answer: Its value is over 11.

Question: With `CCCCN.CCCCN.O=C1[O][Pt][O]C1=O` [Example 8, Bis (n-butylamine)oxalatoplatinum(II)] as the compound, how does the stability (stability in solution; boiling 0.1 M potassium oxalate) read?
Answer: Its stability is “instability”.

Question: With `CCCCCN.CCCCCN.O=C1[O][Pt][O]C1=O` [Example 12, Oxalatobis(n-pentylamine)platinum(II)] as the compound, how does the stability (stability in solution; recrystallisation from hot ethanol) read?
Answer: The stability was “without apparent decomposition”.

Question: With `CCCCCN.CCCCCN.[Cl][Pt][Cl]` [cis-dichlorobis(1-aminopentane)platinum(II)] as the compound, how does the “ID90 (minimum dose to cause 90% tumour inhibition)” value (ADJ/PC6A tumour) read?
Answer: The value was 37 mg/kg.

Question: What about the LD50 (ADJ/PC6A tumour) of the same compound?
Answer: The LD50 was 92 mg/kg.

Question: And the “TI (therapeutic index, ratio LD50/ID90)” value (ADJ/PC6A tumour)?
Answer: Its value is 2.5.

Question: For n-butylamine diaquo complex [Example 1], which stability (stability in solution; [1]) is on record?
Answer: Its stability is “slow decomposition to platinum”.

Question: With “n-propylamine diaquo complex [Example 2]” as the compound, how does the stability (stability in solution; [1]) read?
Answer: Its stability is “slow decomposition to platinum”.
